Measured values taken from US20240197688A1, “COMBINATION MEDICINE FOR PREVENTING/TREATING DYSLIPIDEMIA OR CARDIOVASCULAR DISEASE” (KOWA COMPANY, LTD., priority 2021, published 2024).

Assays:
Format in all cases: in vivo
[1] = system: PPARα gene; test: Effect of combination use on expression level of PPARα gene in liver of rat (quantitative PCR); conditions: male Wistar rat, oral once a day for 2 weeks; compound A 0.3 mg/kg, compound B 30 mg/kg, alone or in combination; β-actin internal standard; actual value
Description: Male rats (7-week-old, Wistar [Crlj: WI], Charles River Laboratories Japan, Inc.) were used for an experiment. Blood was collected from the jugular vein under satiation, and the rats were divided into four groups (N=6) based on TG and TC in the plasma and body weights. For two weeks from the next day of the grouping, each of a solvent (0.5% carboxymethyl cellulose aqueous solution: CMC), a compound A (pemafibrate) alone, a compound B (bempedoic acid) alone, and a combination of pemafibrate and bempedoic acid was orally administered once per day. After four hours from the final administration of the drug, blood was collected under isoflurane anesthesia to obtain the liver. RNA in the liver was extracted using ISOGEN (Nippon Gene Co., Ltd.), and cDNA was prepared using a high-capacity cDNA reverse transcription kit (Thermo Fischer Scientific). Quantitative PCR (polymerase chain reaction) was performed using the prepared cDNA, and the relative value of the expression level of the PPARα gene was calculated using β-actin gene as an internal standard. […]
The results were presented by an average value standard error. Comparison between the control group and each of the drug administration groups was performed by a multiple comparison test of Dunnett, and a risk rate of less than 5% was determined to have a significant difference.

[2] = system: Wistar rat; test: Effect of combination use of compound A and compound B on TG index of rat; conditions: male Wistar rat, oral once a day for 2 weeks; compound A 0.3 mg/kg, compound B 30 mg/kg, alone or in combination; actual value
Description: Male rats (7-week-old, Wistar [Crlj: WI], Charles River Laboratories Japan, Inc.) were used for an experiment. Blood was collected from the jugular vein under satiation, and the rats were divided into four groups (N=6) based on TG and TC in the plasma and body weights. For two weeks from the next day of the grouping, each of a solvent (0.5% carboxymethyl cellulose aqueous solution: CMC), a compound A (pemafibrate) alone, a compound B (bempedoic acid) alone, and a combination of pemafibrate and bempedoic acid was orally administered once per day. After four hours from the final administration of the drug, blood was collected under isoflurane anesthesia to obtain plasma. Parameters in the blood were measured using an automated analyzer (Labospect 003, Hitachi High-Technologies Corporation). A lipid content in the liver was measured using the method described in J. Biol. Chem. 226 (1), 497-509 (1957) (FOLCH method). A TG index (%) was expressed as a ratio of a product of a blood TG concentration and a TG content in the liver of a sample to that of Control. In the present Example, the compound A was prepared and used according to the method described in Patent Document 1. […] Comparison between the control group and each of the drug administration groups was performed by a multiple comparison test of Dunnett, and a risk rate of less than 5% was determined to have a significant difference.

[3] = system: db/db mice; test: Effect of combination use on total cholesterol content in liver of db/db mice; conditions: male db/db mice, oral once a day for 2 weeks; compound A 0.3 mg/kg, compound B 10 mg/kg, alone or in combination
Description: Male mice (8-week-old, db/db: BKS.Cg−+Leprdb/+Leprdb/Jcl, Lean: BKS. Cg−m+/m+/Jcl, CLEA Japan, Inc.) were used for an experiment. They were divided into four groups (N=8) based on body weights. For two weeks from the next day of the grouping, each of a solvent (0.5% methylcellulose aqueous solution: MC), a compound A (pemafibrate) alone, a compound B (bempedoic acid) alone, and a combination of pemafibrate and bempedoic acid was orally administered once per day. After four hours from the final administration of the drug, the liver was extracted under isoflurane anesthesia, and the TC concentration in the liver was measured using the FOLCH method described above. • Group 1: Control (Solvent Only) • Group 2: 0.3 mg/kg of Compound A • Group 3: 10 mg/kg of Compound B • Group 4: 0.3 mg/kg of Compound A and 10 mg/kg of Compound B The results were presented by an average value±standard error. Comparison between the control group and each of the drug administration groups was performed by a multiple comparison test of Tukey, and a risk rate of less than 5% was determined to have a significant difference.

SMILES	expression level of PPARα gene (Ppara) in the liver relative to Control [1] [times]	TG index (ratio of product of blood TG concentration and liver TG content to that of Control) [2] [%]	total cholesterol content in the liver compared to Control [3] [%]
CC[C@@H](Oc1cccc(CN(CCCOc2ccc(OC)cc2)c2nc3ccccc3o2)c1)C(=O)O [compound A, (R)-2-[3-[[N-(benzoxazole-2-yl)-N-3-(4-methoxyphenoxy)propyl]aminomethyl]phenoxy]butyric acid]	1.17	65.4	86.2
CC(C)(CCCCCC(O)CCCCCC(C)(C)C(=O)O)C(=O)O [compound B, 8-hydroxy-2,2,14,14-tetramethylpentadecanedioic acid]	1.22	60.6	87.0
